Source: patent US20230037448A1, “FLUORINATED QUINOLINE AND QUINOXALINE DERIVATIVES AS DIHYDROOROTATE DEHYDROGENASE (DHODH) INHIBITORS FOR THE TREATMENT OF CANCER, AUTOIMMUNE AND INFLAMMATORY DISEASES” (Janssen Biotech, Inc., priority 2019, published 2023)

How the values were obtained:
[1] = biological target: T1, human DHODH (Homo sapiens, UniProt Q02127); experiment: DHODH Enzymatic Assay; format: biochemical; conditions: purified human DHODH; DCIP absorbance, end-point mode
T1 construct: purchased Proteros PR-0044
T1 sequence (Q02127 whole entry): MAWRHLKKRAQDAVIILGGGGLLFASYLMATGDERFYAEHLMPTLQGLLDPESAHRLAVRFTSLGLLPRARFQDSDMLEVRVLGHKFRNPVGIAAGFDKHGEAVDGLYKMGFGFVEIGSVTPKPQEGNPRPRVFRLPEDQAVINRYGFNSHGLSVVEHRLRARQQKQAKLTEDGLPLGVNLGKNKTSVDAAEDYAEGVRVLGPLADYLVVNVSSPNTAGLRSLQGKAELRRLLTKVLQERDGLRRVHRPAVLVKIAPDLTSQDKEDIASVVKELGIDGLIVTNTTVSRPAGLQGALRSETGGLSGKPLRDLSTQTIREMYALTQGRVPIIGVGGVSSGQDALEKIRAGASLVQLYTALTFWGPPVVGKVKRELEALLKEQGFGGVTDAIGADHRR
Protocol: To detect DHODH enzyme activities, dichloroindophenol (DCIP) is added as the final electron acceptor in the assay. DCIP can accept electrons from the reduced coenzyme Q generated in the assay, or from dihydroorotate (DHO) via FMN by binding presumably to the ubiquinone pocket. DCIP solutions are blue, with an intense absorbance around 600 nm, but becomes colorless upon reduction (J. Biol. Chem. (1986) 261, 11386). The assay buffer contained […], pH 7.5, 150 mM NaCl, 0.5 mM EDTA, and 0.1% Triton X-100 in MilliQ water. Substrate consisting of 20 mM DHO, 5 mM CoQ6, and 1 mM DCIP in assay buffer, initiates the reaction. The assay is run in end-point mode by quenching the reaction with the potent DHODH inhibitor brequinar. Absorbance measurements were obtained using the BMG Phera Star plate-reading spectrophotomer. Purified human DHODH was purchased from Proteros (cat. No. PR-0044). Chemicals were purchased from Sigma-Aldrich, Teknova, and Avanti Polar Lipids. Liquid handling was performed using Labcyte Echo and Formulatrix Tempest.

[2] = system: MOLM-13 cells; experiment: MOLM-13 Cellular Assay; format: cell-based; conditions: Homo sapiens, MOLM-13, 72 h, 72 hours exposure, cell viability by CellTiter-Glo
Protocol: MOLM-13 cells were obtained from DSMZ and were maintained in RPMI 1640+Glutamax+25 mM HEPES (Invitrogen, catalog number 72400) supplemented with 10% heat inactivated fetal bovine serum (FBS; Invitrogen, catalog number 16140). The day prior to assay set-up, cells were pelleted, resuspended in fresh media, counted, and cells were plated at 0.4×10^6 cell/mL in a T150 flask. On the day of the assay, cells were pelleted, resuspend in fresh media, counted, and seeded at 5,000 cells/well in white opaque 96-well tissue culture treated microplates (Perkin Elmer, catalog number 6005680). Cells were exposed to different concentrations of test compounds at 37° C., 5% CO2 for 72 hours immediately after seeding. Cell viability was acquired on a Perkin Elmer Envision 2104 multilabel reader using the CellTiter-Glo assay (Promega) according to the manufacturer's instructions.

Row | SMILES | IC50 [1] [nM] | IC50 [2] [nM]
1 | CCn1c(CO)nn(-c2cc3c(C(C)C)cc(-c4c[nH]nc4C(F)(F)F)nc3cc2F)c1=O [Example 23, 4-Ethyl-1-(7-fluoro-4-isopropyl-2-(3-(trifluoromethyl)-pH-pyrazol-4-yl)quinolin-6-yl)-3-(hydroxymethyl)-1H-1,2,4-triazol-5 (4H)-one] | 14 | 9
2 | CCn1c(CO)nn(-c2cc3c(C(C)C)cc(-c4cc(O)ncc4C)nc3cc2F)c1=O [Example 24, 4-Ethyl-1-(7-fluoro-2-(2-hydroxy-5-methylpyridin-4-yl)-4-isopropylquinolin-6-yl)-3-(hydroxymethyl)-1H-1,2,4-triazol-5 (4H)-one] | 33 | > 100
3 | CCn1c(CO)nn(-c2cc3c(C(C)C)cc(-c4c(Cl)c(O)nn4C)nc3cc2F)c1=O [Example 25, 2-(2-(4-Chloro-3-hydroxy-1-methyl-1H-pyrazol-5-yl)-7-fluoro-4-isopropylquinolin-6-yl)-4-ethyl-5-(hydroxymethyl)-2,4-dihydro-3H-1,2,4-triazol-3-one] | 11 | 6
4 | CCn1c(CO)nn(-c2cc3c(C(C)C)cc(-c4c(Cl)c(OC)nn4C)nc3cc2F)c1=O [Example 26, 2-(2-(4-Chloro-3-methoxy-1-methyl-1H-pyrazol-5-yl)-7-fluoro-4-isopropylauinolin-6-yl)-4-ethyl-5-(hydroxymethyl)-2,4-dihydro-3H-1,2,4-triazol-3-one] | 13 | 7
5 | CCn1c(CO)nn(-c2cc3c(C(C)C)cc(-c4c(C(F)(F)F)n[nH]c4Cl)nc3cc2F)c1=O [Example 27, 1-(2-(5-Chloro-3-(trifluoromethyl)-1H-pyrazol-4-yl)-7-fluoro-4-isopropylquinolin-6-yl)-4-ethyl-3-(hydroxymethyl)-1H-1,2,4-triazol-5 (4H)-one] | 0.7 | 6
6 | Cc1n[nH]c(C(F)(F)F)c1-c1cc(C(C)C)c2cc(-c3nc(CO)n(C)n3)c(F)cc2n1 [Example 28, (3-(7-Fluoro-4-isopropyl-2-(3-methyl-5-(trifluoromethyl)-pH-pyrazol-4-yl)quinolin-6-yl)-1-methyl-1H-1,2,4-triazol-5-yl)methanol] | 3 | 2
7 | Cc1n[nH]c(C(F)(F)F)c1-c1cc(C(C)C)c2cc(-c3nc(C(C)O)n(C)n3)c(F)cc2n1 (stereo not shown) [Example 29, 1-(3-(7-Fluoro-4-isopropyl-2-(3-methyl-5-(trifluoromethyl)-1H-pyrazol-4-yl)quinolin-6-yl)-1-methyl-1H-1,2,4-triazol-5-yl)ethan-1-ol] | 1 | 0.36
8 | Cc1n[nH]c(Cl)c1-c1cc(C(C)C)c2cc(-c3nc(CO)n(C)n3)c(F)cc2n1 [Example 30, (3-(2-(5-Chloro-3-methyl-1H-pyrazol-4-yl)-7-fluoro-4-isopropylauinolin-6-yl)-1-methyl-1H-1,2,4-triazol-5-yl)methanol] | 1.2 | 2
9 | Cc1n[nH]c(Cl)c1-c1cc(C(C)C)c2cc(-c3nc(C(C)O)n(C)n3)c(F)cc2n1 (stereo not shown) [Example 31, 1-(3-(2-(5-Chloro-3-methyl-1H-pyrazol-4-yl)-7-fluoro-4-isopropylauinolin-6-yl)-1-methyl-1H-1,2,4-triazol-5-yl)ethan-1-ol] | 1.6 | 0.83
10 | Cc1n[nH]c(Cl)c1-c1cc(C(C)C)c2cc(-c3cn(C)c(CO)n3)c(F)cc2n1 [Example 32, (4-(2-(5-Chloro-3-methyl-1H-pyrazol-4-yl)-7-fluoro-4-isopropylauinolin-6-yl)-1-methyl-1H-imidazol-2-yl)methanol] | 1.2 | 3
11 | Cc1n[nH]c(C(F)(F)F)c1-c1cc(C(C)C)c2cc(-c3cn(C)c(CO)n3)c(F)cc2n1 [Example 33, (4-(7-Fluoro-4-isopropyl-2-(3-methyl-5-(trifluoromethyl)-1H-pyrazol-4-yl)quinolin-6-yl)-1-methyl-1H-imidazol-2-yl)methanol] | 2 | 1
12 | CCn1c(CO)nn(-c2cc3c(C(C)C)nc(-c4c(C)n[nH]c4C(F)(F)F)nc3cc2F)c1=O [Example 34, 4-Ethyl-2-(7-fluoro-4-isopropyl-2-(3-methyl-5-(trifluoromethyl)-1H-pyrazol-4-yl)quinazolin-6-yl)-5-(hydroxymethyl)-2,4-dihydro-3H-1,2,4-triazol-3-one] | 5.2 | 4
13 | CCn1c(CO)nn(-c2cc3c(C(C)C)cc(-c4c(C)ccnc4Cl)nc3cc2F)c1=O [Example 35, 1-(2-(2-Chloro-4-methylpyridin-3-yl)-7-fluoro-4-isopropylquinolin-6-yl)-4-ethyl-3-(hydroxymethyl)-1H-1,2,4-triazol-5 (4H)-one] | 4.7 | 4
14 | C=C(C)c1cc(-c2ccccc2C)nc2cc(F)c(-n3nc(CO)n(CC)c3=O)cc12 [Example 39, 4-Ethyl-1-(7-fluoro-4-(prop-1-en-2-Yl)-2-(o-tolyl)quinolin-6-yl)-3-(hydroxymethyl)-1H-1,2,4-triazol-5 (4H)-one] | 0.24 | 0.2
